{"source": "patent US12303508B2", "about": "“Combinatory treatment strategies of cancer based on RNA polymerase I inhibition” (THE JOHNS HOPKINS UNIVERSITY, priority 2016, dated 2025)", "key": {"MR49F cells": {"system": "MR49F cells", "test": "Cleaved caspase-3 and DNA staining, MR49F", "format": "cell-based", "conditions": "for massive apoptotic response, single treatment: either treatment alone", "from_the_text": "(§1) The inset bars represent sub-G1 cells. (B) The percentage of sub-G1 cells from A is plotted over time. (C) Staining of the cells for the apoptosis marker caspase-3. Immunofluorescence and Epifluorescence Microscopy. Cells grown on coverslips were fixed in 3.5% paraformaldehyde, permeabilized with 0.5% NP-40 and blocked with 3% BSA. Cells were stained for LC3-II and cleaved caspase-3 (Cell Signaling). Alexa 488-conjugated secondary antibodies were from Invitrogen. DNA was counterstained with DAPI (Invitrogen). Images were captured using Axioplan2 fluorescence microscope (Zeiss) equipped with AxioCam HRc CCD-camera and AxioVision 4.5 software using EC Plan-Neofluar 20× or 40× objectives (Zeiss)."}, "LNCaP cells": {"system": "LNCaP cells", "test": "Cleaved caspase-3 and DNA staining, LNCaP", "format": "cell-based", "conditions": "for massive apoptotic response, single treatment: either treatment alone", "from_the_text": "as §1"}, "[1]": {"system": "MR49F enzalutamide-resistant prostate cancer cells", "test": "Cell viability (CellTiter-Blue) with Chou-Talalay combination index, MR49F", "format": "cell-based", "conditions": "in combination with BMH-21, constant concentrations, 48 h, CI<1 synergism", "experimental": "(§2) Cell viability was measured using Cell TiterBlue, and Chou-Talalay Combination Index analysis was performed. CI<1 denotes synergism. Effect denotes the combinatory drug activity where 1 represents 100% kill.\n(§3) Cells were maintained at 37° C. in a humidified atmosphere containing 5% CO2. […] Effect denotes the combinatory drug activity where 1 represents 100% kill."}, "[2]": {"system": "LNCaP prostate cancer cells", "test": "Cell viability (CellTiter-Blue) with Chou-Talalay combination index, LNCaP", "format": "cell-based", "conditions": "in combination with BMH-21, LNCaP cells, 48 h", "experimental": "Cell viability was measured using Cell TiterBlue, and the mean of triplicate samples is shown. (B) Chou-Talalay combination index (CI) analysis was used to determine the drug interactions (blue curve). CI<1 denotes synergism. Red bar, C=1 additive effect. Fraction dead cells denotes the combinatory drug activity where 1 represents 100% kill.\n(§4) Cells and Viability Assay. A375 melanoma and LNCaP prostate cancer cells were from American Type Culture Collection. HCT116 p53+/+ and −/− cells were from Dr. F. Bunz. MR49F cells were from Dr. M. Gleave. Cells were maintained at 37° C. in a humidified atmosphere containing 5% CO2. Cells were plated in 96-well plates at a density of 3,000 cells/well in triplicate and incubated for 48 h with the compounds. Viability was determined using CellTiter-Blue Cell Viability Assay (Promega) according to manufacturer's instructions. Chou-Talaley algorithm (Compusyn) was used to define the combination index (CI) where CI<1 denotes synergism, CI>1 denotes antagonism and CI=1 is additive. Effect denotes the combinatory drug activity where 1 represents 100% kill."}, "tumor xenograft": {"system": "tumor xenograft", "conditions": "previously demonstrated; cited from earlier work"}, "RPA194": {"system": "RPA194", "conditions": "previously demonstrated; cited from earlier work"}, "NCI60 cancer cell lines": {"system": "NCI60 cancer cell lines", "conditions": "previously demonstrated; cited from earlier work"}, "[3]": {"system": "HCT116 p53+/+ colon carcinoma cells", "test": "Cell viability (CellTiter-Blue) with Chou-Talalay combination index, HCT116 p53+/+", "format": "cell-based", "conditions": "in combination with BMH-21, HCT116 p53+/+ cells, 48 h", "experimental": "(§5) Data represent N=2 biological assays each conducted in triplicate. […] Chou-Talalay plots are shown. Data represents N=2 biological assays each conducted in triplicate.\nas §4\n(§6) The inventors tested these combinations in three different cell lines (A375 melanoma cells, HCT116 p53+/+ and HCT116 p53−/− colon carcinoma cells)."}, "[4]": {"system": "HCT116 p53−/− colon carcinoma cells", "test": "Cell viability (CellTiter-Blue) with Chou-Talalay combination index, HCT116 p53-/-", "format": "cell-based", "conditions": "in combination with BMH-21, HCT116 p53−/− cells, 48 h", "experimental": "as §5, §4, §6"}, "[5]": {"system": "A375 human melanoma cells", "test": "Cell viability (CellTiter-Blue) with Chou-Talalay combination index, A375", "format": "cell-based", "conditions": "in combination with BMH-21, constant concentrations, 48 h, CI<1 synergism, CI>1 antagonism", "experimental": "as §3"}, "LC3-II in MR49F cells": {"system": "LC3-II in MR49F cells", "test": "LC3-II western blotting and immunofluorescence staining", "format": "cell-based", "conditions": "24 h", "experimental": "as §2\nas §1, with “Immunofluorescence” for “The inset bars represent sub-G1 cells. (B) The percentage of sub-G1 cells from A is plotted over time. (C) Staining of the cells for the apoptosis marker caspase-3. Immunofluorescence”\nImmunoblotting. Cells were lysed in 0.5% NP-40 buffer (25 mM Tris-HCl, pH 8.0, 120 mM NaCl, 0.5% NP-40, 4 mM NaF, 100 μM Na3VO4, 100 KIU/ml aprotinin, 10 μg/ml leupeptin) or RIPA lysis buffer. Proteins were separated on SDS-PAGE, blotted, probed for respective proteins and detected using ECL (Amersham). The primary antibodies used for detection were LC3-II and cleaved caspase-3 (Cell Signaling). HRP-conjugated secondary antibodies were from DAKO or Santa Cruz Biotechnology."}, "[6]": {"conditions": "BMH-21 plus Avasimibe combination"}}, "data": [{"compound": "CC(C)c1cc(C(C)C)c(CC(=O)NS(=O)(=O)Oc2c(C(C)C)cccc2C(C)C)c(C(C)C)c1", "note": "[Avasimibe]", "values": [{"measurement": "apoptosis by cleaved caspase-3 and DNA staining, combination", "setting": "MR49F cells; [6]", "result": "prominent cell apoptosis"}, {"measurement": "massive apoptotic response, single treatment", "setting": "MR49F cells", "result": "not observed"}, {"measurement": "apoptosis by cleaved caspase-3 and DNA staining, combination", "setting": "LNCaP cells; [6]", "result": "prominent cell apoptosis"}, {"measurement": "massive apoptotic response, single treatment", "setting": "LNCaP cells", "result": "not observed"}, {"measurement": "drug interaction with BMH-21 (Chou-Talalay combination index on cell viability)", "setting": "[1]", "result": "prominent synergistic activities"}, {"measurement": "drug interaction with BMH-21 (cell viability, Chou-Talalay combination index)", "setting": "[2]", "result": "synergistic cancer cell death"}]}, {"compound": "CN(C)CCNC(=O)c1cccn2c(=O)c3cc4ccccc4cc3nc12", "note": "[BMH-21, 12H-Benzo[g]pyrido[2,1-b]quinazoline-4-carboxamide, N-[2(dimethylamino)ethyl]-12-oxo]", "values": [{"measurement": "tumor burden in mouse xenograft assays", "setting": "tumor xenograft", "result": "reduced tumor burden"}, {"measurement": "degradation of RPA194", "setting": "RPA194", "result": "causes proteasome-mediated degradation of RPA194"}, {"measurement": "massive apoptotic response, single treatment", "setting": "MR49F cells", "result": "not observed"}, {"measurement": "massive apoptotic response, single treatment", "setting": "LNCaP cells", "result": "not observed"}, {"measurement": "anticancer activity in NCI60 cancer cell lines", "setting": "NCI60 cancer cell lines", "result": "broad and potent anticancer activity"}]}, {"compound": "Cn1ncnc1[C@H]1c2n[nH]c(=O)c3cc(F)cc(c23)N[C@@H]1c1ccc(F)cc1", "note": "[BMN-673]", "values": [{"measurement": "drug interaction with BMH-21 (Chou-Talalay combination index on cell viability)", "setting": "[3]", "result": "synergistically"}, {"measurement": "drug interaction with BMH-21 (Chou-Talalay combination index on cell viability)", "setting": "[4]", "result": "synergistically"}, {"measurement": "drug interaction with BMH-21 (Chou-Talalay combination index on cell viability)", "setting": "[5]", "result": "synergistically"}]}, {"compound": "CCN(CC)CCCC(C)Nc1ccnc2cc(Cl)ccc12", "note": "(centres unmarked) [chloroquine]", "values": [{"measurement": "number of LC3-II puncta", "setting": "LC3-II in MR49F cells; co-treatment with BMH-21 (1 μM)", "result": "significant increase"}, {"measurement": "expression of LC3-II (marker for autophagy inhibition)", "setting": "LC3-II in MR49F cells; combination with BMH-21 (1 μM), western blotting and immunofluorescence", "result": "increased"}]}, {"compound": "O=C(c1cc(Cc2n[nH]c(=O)c3ccccc23)ccc1F)N1CCN(C(=O)C2CC2)CC1", "note": "[olaparib, 4-[[3-[4-(cyclopropanecarbonyl)piperazine-1-carbonyl]-4-fluorophenyl]methyl]-2H-phthalazin-1-one]", "values": [{"measurement": "drug interaction with BMH-21 (Chou-Talalay combination index on cell viability)", "setting": "[3]", "result": "synergistically"}, {"measurement": "drug interaction with BMH-21 (Chou-Talalay combination index on cell viability)", "setting": "[4]", "result": "synergistically"}, {"measurement": "drug interaction with BMH-21 (Chou-Talalay combination index on cell viability)", "setting": "[5]", "result": "synergistically"}]}, {"compound": "Bafilomycin", "values": [{"measurement": "drug interaction with BMH-21 (Chou-Talalay combination index on cell viability)", "setting": "[1]", "result": "synergistic cell death"}]}]}
